# Test results reported in patent US20210353614A1, “COMPOUNDS AND USES THEREOF TO TREAT TUMORS IN A SUBJECT” (Merck Patent GMBH, priority 2018, published 2021).
# Like-named read-outs stand apart in the source and are kept apart here.
# Experiments:
# colon cancer cell line [1] = assay: GI50 of SN38 and of the combination with ATMi2; type: cell-based
# [2] = system: human colon cancer xenograft model SW620; assay: CRC xenograft model, ATM inhibitors in combination with irinotecan; type: in vivo, mice
# Protocol: Animals were treated with three 1-week cycles of a combination of irinotecan and the respective ATM inhibitors, or the respective monotherapy control arms. One cycle consisted of one irinotecan application (ip) at a dose of 50 mg/kg, followed by 100, and 50 mg/kg of ATMi 1, or 10 and 25 mg/kg of ATMi 2 (po) 24 h later and for four subsequent days.
# colon cancer cell line [3] = assay: Immunogenic cell death induction (calreticulin, HSP70, HSP90 surface expression, ATP and HMGB1 release, caspase-3/7); type: cell-based
# Protocol: […]. The inhibitor for ATM and SN38 were tested as single agents and in combination at the concentrations of the GI50 of the combination. The GI50 of SN38 was included as a positive control for induction of immunogenic cell death. […] Cell surface expression of calreticulin, HSP70 and HSP90 was analysed by Flow Cytometry, ATP secretion by ATPlite assay Perkin Elmer, HMGB1 release by HMGB1 Elisa (IBL International) and apoptosis by Caspase-Glo 3/7 Assay Systems (measures caspase-3/7 activities).
# Analyses of DAMPs (Calreticulin, HSP70, HSP90, HMGB1 and ATP) were carried out whithin the same sample. Cells were treated 24 hours after seeding and analyses performed 72 hours post-treatment. Cells were used for FACS analyses and supenatants for ATP and HMGB1 measurements. Caspase-Glo 3/7 was carried out in parallel following the same treatment schedule.
# For FACS analyses, an unstained sample was used as a gating control and an isotype sample to measure unspecific antibody binding. % PE positive cells represent cells with cell surface expression of the tested marker (all markers were conjugated with PE and tested independently). ATP secretion, HMGB1 release and apoptosis were carried out accordingly to the protocols provided by the commercial supplier (data represented as the average of two independent biological repeats).
# [4] = combination ATMi 2 25 mg/kg + irinotecan, d28
# [5] = combination ATMi 2 25 mg/kg po + irinotecan 50 mg/kg ip, day 21
smiles,measurement,setting,value
"COc1cc2ncc3c(c2cc1-c1cn(C)nc1C)n(-c1c(F)cncc1OC)c(=O)n3C [ATMi 2, 8-(1,3-Dimethyl-1H-pyrazol-4-yl)-1-(3-fluoro-5-methoxy-pyridin-4-yl)-7-methoxy-3-methyl-1,3-dihydro-imidazo[4,5-c]quinolin-2-one]",GI50,"colon cancer cell line [1]; in combination with 0.4 nM SN38, read-out: GI50 of the combination (ATMi2 concentration)",250 nM
same,partial responses (tumor volume >30% decrease),[2]; [4],2/10
same,stable diseases (tumor volume change between 30% decrease and 73% increase),[2]; [4],3/10
same,animals progression free (<73% increase in tumor volume compared to starting volume),"[2]; combination ATMi 2 25 mg/kg + irinotecan, d28, one week after stop of treatment",5/10
same,decrease of mean tumor volume compared to starting volume,[2]; [5],~87%
same,mean tumor volume,[2]; [5],53 mm^3
same,induction of immunogenic cell death,"colon cancer cell line [3]; ATMi2 single agent at 250 nM, 72 hours post-treatment",not
same,induction of immunogenic cell death,"colon cancer cell line [3]; combination 250 nM ATMi2 + 0.4 nM SN38, 72 hours post-treatment",clear induction of immunogenic cell death
"CCc1c2c(nc3ccc(O)cc13)-c1cc3c(c(=O)n1C2)COC(=O)[C@]3(O)CC [SN38, reference compound]",GI50,"colon cancer cell line [1]; SN38 as single agent, read-out: GI50",2 nM
same,GI50,"colon cancer cell line [1]; in combination with 250 nM ATMi2, read-out: GI50 of the combination (SN38 concentration)",0.4 nM
same,induction of immunogenic cell death,"colon cancer cell line [3]; SN38 at its GI50 (2 nM), 72 hours post-treatment",clear induction of immunogenic cell death
same,induction of immunogenic cell death,"colon cancer cell line [3]; SN38 single agent at 0.4 nM, 72 hours post-treatment",not
"CCc1c2c(nc3ccc(OC(=O)N4CCC(N5CCCCC5)CC4)cc13)-c1cc3c(c(=O)n1C2)COC(=O)[C@]3(O)CC [irinotecan, reference compound]",disease status,"[2]; irinotecan arm, day 28",all animals showed progressive disease
